Measurements published in patent EP4789666A1, “RNA M6A REGULATOR COMPOSITION, PREPARATION METHOD THEREFOR, AND USE THEREOF” (SHANGHAI MERNA THERAPEUTICS CO. LTD, priority 2023, dated 2025).
Blank lines part the entries; values can stand above or below the compound they belong to.

Assays:
[1] = system: rat models with hand-foot skin reaction; test: Rat models with hand-foot skin reaction, topical ointment (incidence rate, histology, immunohistochemistry); type: in vivo, SD rats; details: for Incidence rate, left paw / Incidence rate, right paw: modeling drug alone by gavage once daily 30 days (sorafenib 100, erlotinib 70, afatinib 50, osimertinib 60 mg/kg), no compound in ointment; for successful modeling rates for the hand-foot skin reaction: once daily by gavage at 100, 70, 50 and 60 mg/kg (sorafenib, erlotinib, afatinib, osimertinib), SD rats
Procedure: After adaptive feeding for one week, SD rats (with a body weight of approximately 200 g) were randomly divided into groups with balanced body weight, with 12 rats in each group. Modeling drugs (including sorafenib, erlotinib, afatinib, and osimertinib) were respectively dissolved in a solution containing 5% of DMSO, 45% of PEG400, and 50% of H2O, and the modeling drugs were diluted to required concentrations and then administered once daily by gavage at doses shown in Table 3. After administration by gavage for 1 hour, 0.05 g of ointments containing different mass proportions of test compounds were evenly applied to left paws of the rats, a blank matrix ointment was applied to right paws of the rats to serve as a self-control, and no ointment was applied to the rats in a blank control group. After drug application, four limbs were continuously immobilized for 2 hours, then wiped with clean water to remove the residual drugs, removed from immobilization, and restored to free movement. The modeling drugs, the blank matrix ointment, and the ointments containing the test compounds were all administered once daily. After continuous administration for 30 days, the rats were euthanized, and paw plantar skin tissues were collected, fixed in 10% neutral formalin, […]. The ointments for the test compounds were prepared by mixing the compounds, white beeswax, white petrolatum, and light liquid paraffin in specific ratios (weight ratios of 3 ointments were respectively 1:18:58:23, 3:18:57:22, and 10:20:40:30). The blank matrix ointment was prepared by mixing white beeswax, white petrolatum, and light liquid paraffin in a specific ratio (weight ratio of 18:60:22).
Tissue staining: After dewaxing and rehydration, the paw plantar skin tissue sections of the above rats were stained in a hematoxylin solution for several minutes, cleaned, and placed in 1% acid alcohol for soaking until the sections faded to light blue-red. After cleaning with running water for 5 minutes, the sections were stained with eosin for 2-3 minutes, cleaned to remove excess dyes, dehydrated, then permeabilized by adding xylene for several minutes, and sealed and fixed with a neutral resin. The stratum corneum was observed under an optical microscope, and the thickness of the epidermal stratum corneum was measured using Dmetrix software.
Immunohistochemical staining: After dewaxing and hydration, the paw plantar skin tissue sections of the above rats were incubated with 3% H2O2 at room temperature for 30 minutes and blocked with 10% goat serum for 30 minutes after antigen retrieval. A KRT1 antibody (Abcam, ab93652) and a Loricrin antibody (Abcam, ab183646) were added dropwise, the sections were incubated overnight at 4°C, and an HRP secondary antibody (ZSGB-BIO, PV-6001) and a DAB kit (ZSG-BIO, ZLI9017) were added for color development. The sections were re-stained with hematoxylin, cleaned, and sealed and fixed with a neutral resin, and the expression amounts of KRT1 and Loricrin were observed under an optical microscope.
An incidence rate calculation method involves a proportion of animals in each group meeting the above criteria for determining successful modeling, that is, incidence rate = (number of successfully modeled rats/total number of rats in the group)*100%. […]

[2] = system: chemotherapeutic drug-induced mouse model with hand-foot syndrome; test: Chemotherapeutic drug-induced mouse model with hand-foot syndrome; type: in vivo, ICR mice; details: for degree of swelling of the hind limb toes of the mice: continuous oral administration of modeling drug for 14 days; for epidermal layer and stratum corneum in the skin tissues of the hind limb toes: modeling drug oral for 14 days versus normal control group, pathological staining; for skin of the hind limb toes of the mice (appearance): modeling for 14 days (capecitabine 200 mg/kg, docetaxel 25 mg/kg oral), versus normal control group
Text: After adaptive feeding for 7 days, SPF-grade ICR mice (male, 5-6 weeks old, with a body weight of approximately 35 g) were randomly divided into groups, including a blank control group (6 mice), a capecitabine modeling group (6 mice), a docetaxel modeling group (6 mice), a capecitabine + compound of formula (I) group (6 mice), a docetaxel + compound of formula (I) group (6 mice), a capecitabine + nicotinamide group (6 mice), and a docetaxel + nicotinamide group (6 mice). The groups were respectively administered corresponding modeling drugs by oral gavage (capecitabine at 200 mg/kg and docetaxel at 25 mg/kg) once daily; and the blank control group was administered an equivalent volume of normal saline. After administration with the chemotherapeutic drugs for 2 weeks, the ointments containing the compound of formula (I) (at a compound content of 3%) used in Example 10 were respectively applied topically in the groups, or nicotinamide was orally administered (100 mg/kg) once daily continuously for 16 days.
(§1) Measurement of the degree of swelling of toes: The degree of swelling of hind limb toes of the mice was measured using a toe swelling tester (KW-7C, Nanjing Calvin Biotechnology Co., Ltd.) before administration with the modeling drugs, after administration with the modeling drugs for 2 weeks, and before sacrifice, respectively. Before measurement, ankle joints of hind feet of the mice were marked at same positions before administration, after administration for 2 weeks, and before sacrifice. During measurement, water was properly located at the same level as the marked positions, and numerical values were recorded after becoming stable.
(§2) Pathological staining of skin tissues: Skin tissue samples were selected from hind limb toes of the mice and placed in 4% paraformaldehyde for fixation at room temperature for 4 hours. Then, the tissues were taken out and rinsed with running water for several hours. The samples were subjected to dehydration treatment with 70%, 80%, and 90% ethanol solutions, followed by treatment with a mixed solution of equal amounts of absolute alcohol and xylene for 15 minutes, and then permeabilized twice with a xylene solution for 15 minutes each time until the samples became transparent. The samples were placed in a mixture of half xylene and half paraffin for soaking for 15 minutes, and then, paraffin I and paraffin II were added for wax penetration for one hour, respectively. After embedding with paraffin, the samples were sectioned, baked, dewaxed, and hydrated. Then, the hydrated sections were placed in a hematoxylin solution (ZSGB-BIO, article No. 23041001) for staining for 3 minutes, and a differentiation solution of hydrochloric acid in ethanol was added for differentiation for 15 seconds. After rinsing with water, a Scott bluing solution (Servicebio, article No. 20230801) was added for bluing for 15 seconds. After rinsing with running water, the sections were stained with an eosin solution (Solarbio, article No. 33535) for 3 minutes, rinsed with running water, dehydrated, permeabilized, sealed, and inspected under a microscope.
(§3) Immunohistochemical staining: After baking, dewaxing, and hydration, paraffin sections of skin tissues of hind limb toes of the mice were subjected to antigen retrieval using a 0.2 M citric acid buffer solution (containing 1.534 g of citric acid, 3.1 g of sodium citrate, and 100 mL of distilled water, pH 4.7). Endogenous […] was removed using 3% hydrogen peroxide (Shandong Annjet High-Tech Disinfection Technology Co., Ltd., article No. 20290902), and the sections were incubated at room temperature for 10 minutes and then fully rinsed with a PBS buffer solution (containing 8 g of NaCl, 0.2 g of KCl, 1.44 g of Na2HPO4, and 1 M HCl, pH 7.4). The sections were permeabilized with 0.5% Triton-X-100 (AmyJet Scientific, article No. A-CSH436-100 mL), respectively permeabilized with mouse anti-IL-1β and rabbit IL-8 for 10 minutes, and not permeabilized with rabbit anti-IL-6. […]

[3] = system: kinase inhibitor-induced mouse model with hand-foot skin reaction; test: Kinase inhibitor-induced mouse model with hand-foot skin reaction; type: in vivo, ICR mice; details: for degree of swelling of the hind limb toes of the mice: continuous oral administration of modeling drug for 14 days; for epidermal layer and stratum corneum in the skin tissues of the hind limb toes: modeling drug oral for 14 days versus normal control group, pathological staining; for skin of the hind limb toes of the mice (appearance): modeling for 14 days (sorafenib 100 mg/kg, osimertinib 10 mg/kg oral), versus normal control group; for cytokine IL-1β in the skin tissues of the hind limb toes: immunohistochemistry, p<0.05
Text: After adaptive feeding for 7 days, SPF-grade ICR mice (male, 5-6 weeks old, with a body weight of approximately 35 g) were randomly divided into groups, including a blank control group (6 mice), a sorafenib modeling group (6 mice), an osimertinib modeling group (6 mice), a sorafenib + compound of formula (I) group (6 mice), an osimertinib + compound of formula (I) group (6 mice), a sorafenib + nicotinamide group (6 mice), and an osimertinib + nicotinamide group (6 mice). The groups were respectively administered corresponding modeling drugs by oral gavage (sorafenib at 100 mg/kg and osimertinib at 10 mg/kg) once daily; and the blank control group was administered an equivalent volume of normal saline. After administration with the chemotherapeutic drugs for 2 weeks, the ointments containing the compound of formula (I) (at a compound content of 3%) used in Example 10 were respectively applied topically in the groups, or nicotinamide was orally administered (100 mg/kg) once daily continuously for 16 days.
as §1, §2, §3

[4] = immunohistochemical staining, successfully modeled rats
[5] = successfully modeled rats versus normal rats, FIG. 8
[6] = capecitabine and docetaxel models, 3% ointment topical or nicotinamide 100 mg/kg oral, once daily 16 days
[7] = sorafenib and osimertinib models, 3% ointment topical or nicotinamide 100 mg/kg oral, once daily 16 days

Structure (SMILES): CN(C)C/C=C/C(=O)Nc1cc2c(Nc3ccc(F)c(Cl)c3)ncnc2cc1O[C@H]1CCOC1 [Afatinib, afatinib, reference compound]
KRT1 and Loricrin in tissues [1, 4]: significantly increased | Incidence rate, left paw [1]: 8/12 (66.7%) | Incidence rate, right paw [1]: 8/12 (66.7%) | successful modeling rates for the hand-foot skin reaction [1]: 66.7% | stratum corneum thickness of the paw plantar skin [1, 5]: significantly higher

cytokine IL-8 in the skin tissues of the hind limb toes ([2]; capecitabine oral for 14 days versus normal control group, immunohistochemistry, p<0.05): significantly increased | epidermal layer and stratum corneum in the skin tissues of the hind limb toes [2]: significantly thickened | skin of the hind limb toes of the mice (appearance) [2]: obvious erythema, rhagades, and blisters
Structure (SMILES): CCCCCOC(=O)Nc1nc(=O)n([C@@H]2O[C@H](C)[C@@H](O)[C@H]2O)cc1F [Capecitabine, capecitabine]
degree of swelling of the hind limb toes of the mice [2]: swelling of the hind limb toes of the mice was caused

cytokine IL-6 in the skin tissues of the hind limb toes ([2]; docetaxel oral for 14 days versus normal control group, immunohistochemistry, p<0.05): significantly increased | epidermal layer and stratum corneum in the skin tissues of the hind limb toes [2]: significantly thickened | skin of the hind limb toes of the mice (appearance) [2]: obvious erythema, rhagades, and blisters
Structure (SMILES): CC(=O)O[C@@]12CO[C@@H]1C[C@H](O)[C@@]1(C)C(=O)[C@H](O)C3=C(C)[C@@H](OC(=O)[C@H](O)[C@@H](NC(=O)OC(C)(C)C)c4ccccc4)C[C@@](O)([C@@H](OC(=O)c4ccccc4)[C@H]21)C3(C)C [Docetaxel, docetaxel]
degree of swelling of the hind limb toes of the mice [2]: swelling of the hind limb toes of the mice was caused

Structure (SMILES): C#Cc1cccc(Nc2ncnc3cc(OCCOC)c(OCCOC)cc23)c1 [Erlotinib, erlotinib, reference compound]
KRT1 and Loricrin in tissues ([1]; rat, in vivo): significantly increased | stratum corneum thickness of the paw plantar skin ([1]; rat, in vivo): significantly higher

Structure (SMILES): NC(=O)c1cccnc1 [Nicotinamide, nicotinamide]
swelling of the toes caused by the modeling drugs [2, 6]: it was not observed that oral administration of the nicotinamide at 100 mg/kg significantly alleviated the swelling | thickening of the epidermal layer and the stratum corneum in the skin tissues [2, 6]: mildly alleviated | expression level of cytokine IL-8 in the skin tissues of the hind limb toes ([2]; capecitabine model, 3% ointment topical or nicotinamide 100 mg/kg oral): didn't have a significant impact | expression level of cytokine IL-6 in the skin tissues of the hind limb toes ([2]; docetaxel model, 3% ointment topical or nicotinamide 100 mg/kg oral): didn't have a significant impact | expression level of cytokine IL-1β in the skin tissues of the hind limb toes ([3]; osimertinib model, 3% ointment topical or nicotinamide 100 mg/kg oral): didn't have a significant impact | swelling of the toes caused by the modeling drugs [3, 7]: it was not observed that oral administration of the nicotinamide at 100 mg/kg significantly alleviated the swelling | thickening of the epidermal layer and the stratum corneum in the skin tissues [3, 7]: didn't significantly alleviate | expression level of cytokine IL-1β in the skin tissues of the hind limb toes ([3]; sorafenib model, 3% ointment topical or nicotinamide 100 mg/kg oral): didn't have a significant impact

degree of swelling of the hind limb toes of the mice [3]: significant swelling | epidermal layer and stratum corneum in the skin tissues of the hind limb toes [3]: significantly thickened | skin of the hind limb toes of the mice (appearance) [3]: obvious erythema and rhagades | cytokine IL-1β in the skin tissues of the hind limb toes ([3]; osimertinib oral for 14 days versus normal control group): significantly increased
Structure (SMILES): C=CC(=O)Nc1cc(Nc2nccc(-c3cn(C)c4ccccc34)n2)c(OC)cc1N(C)CCN(C)C [Osimertinib, osimertinib]
KRT1 and Loricrin in tissues ([1]; rat, in vivo): significantly increased | stratum corneum thickness of the paw plantar skin ([1]; rat, in vivo): significantly higher

degree of swelling of the hind limb toes of the mice [3]: significant swelling | epidermal layer and stratum corneum in the skin tissues of the hind limb toes [3]: significantly thickened | skin of the hind limb toes of the mice (appearance) [3]: obvious erythema and rhagades | cytokine IL-1β in the skin tissues of the hind limb toes ([3]; sorafenib oral for 14 days versus normal control group): significantly increased
Structure (SMILES): CNC(=O)c1cc(Oc2ccc(NC(=O)Nc3ccc(Cl)c(C(F)(F)F)c3)cc2)ccn1 [Sorafenib, sorafenib, reference compound]
KRT1 and Loricrin in tissues [1, 4]: significantly increased | Incidence rate, left paw [1]: 9/12 (75%) | Incidence rate, right paw [1]: 9/12 (75%) | successful modeling rates for the hand-foot skin reaction [1]: 75% | stratum corneum thickness of the paw plantar skin [1, 5]: significantly higher
